Assays:
[1] = target: T1, FAST (Halorhodospira halophila, UniProt P16113, C69G/D97P/F96I/M100R/Q99S/T101G/T95M/Y94W/Y98T); experiment: Spectroscopic properties of FAST:fluorogen complexes in PBS pH 7.4 (absorption, emission, quantum yield); format: physicochemical; settings: for Brightness = ε × φ / ε, molar absorption coefficient at λ abs / F bound/F unbound, fluorescence activation upon FAST binding / φ, fluorescence quantum yield / λ abs, wavelength of maximal absorption / λ em, wavelength of maximal emission / Δλ abs = λ abs,bound – λ abs,unbound, absorption red-shift upon FAST binding: PBS pH 7.4
T1 construct: His-tag; made in house; host or cells: Rosetta(DE3)pLysS E. coli
T1 sequence (P16113 whole entry C69G/Y94W/T95M/F96I/D97P/Y98T/Q99S/M100R/T101G): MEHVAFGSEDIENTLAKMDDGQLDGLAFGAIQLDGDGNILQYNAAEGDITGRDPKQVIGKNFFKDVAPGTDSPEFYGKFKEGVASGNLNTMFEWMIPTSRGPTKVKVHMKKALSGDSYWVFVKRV
Description: (§1) The UV/Vis absorption spectra were recorded with 1 cm × 1 cm quartz cuvettes (Hellma) on a diode array UV/Vis spectrophotometer (Evolution array, Thermo Scientific). The corrected fluorescence spectra upon one-photon excitation were recorded with a Photon Technology International QuantaMaster QM-1 spectrofluorimeter (PTI, Monmouth Junction, NJ) equipped with a Peltier cell holder (TLC50, Quantum Northwest, Shoreline, WA). The overall emission quantum yields after one-photon excitation φ were determined as previously described.[14]

[2] = Physico-chemical properties of free fluorogens in aqueous solutions; format: physicochemical; settings: free fluorogen; for pKa: aqueous solution, read-out: pKA, acidity constant
Description: as §1, with “pH measurements were performed on a standard pH meter PHM210 Radiometer Analytical (calibrated with aqueous buffers at pH 4 and 7 or 10) with a Crison 5208 Electrode (Barcelona, Spain). The UV/Vis” for “The UV/Vis”
HBR-3,5DOM in aqueous solutions. Abbreviations are as follows : pKA, acidity constant ;
λabs,neutral, wavelength of maximal absorption of the protonated state; λabs,anionic, wavelength of
maximal absorption of the anionic state.
Fluorogen pKA λabs,neutral (nm) λabs,anionic (nm)

[3] = target: T1, FAST; experiment: Affinity constants by spectrofluorometric titration of FAST with fluorogen; format: binding
Description: as §1

[4] = tested on: HeLa cells; experiment: LIVE/DEAD viability/cytotoxicity assay; format: cell-based; settings: 5 µM, 24 h, calceinAM and EthD1
Description: The HeLa cells were treated with DMEM media containing the fluorogens at the indicated concentrations for the indicated times. The cell viability was evaluated by fluorescence microscopy using the LIVE/DEAD® viability/cytotoxicity assay kit (Molecular Probes, Life Technologies) following the manufacturer’s protocol.
Figure S2. Viability assay of HeLa cells incubated for 24 h with solutions of HBR-3,5DM, HBR-3OM and HBR-3,5DOM at 5 µM. Cell viability was tested by using calceinAM and EthD1 (LIVE/DEAD® viability/cytotoxicity assay kit). CalceinAM is a cell-permeant profluorophore cleaved by intracellular esterases releasing the green fluorescent polyanionic calcein in live cells. EthD1 (Ethidium homodimer 1) is a non cell-permeant nucleic acid red fluorescent stain that enters only cells with damaged membranes and undergoes a fluorescence enhancement upon binding to nucleic acids, thereby producing a bright red fluorescence in dead cells. Control experiments with HeLa cells non-incubated with dye (A) or incubated for 30 min with 1% hydrogen peroxyde (B) are shown. Cell fluorescence was evaluated by confocal microscopy.
3OM and HBR-3,5DOM are non-toxic for HeLa cells at the concentrations used for imaging.
(1 picture or pasted object on this page, not shown here)

[5] = FAST:fluorogen complex, listed as FAST:HBR-3OM
[6] = FAST:fluorogen complex, listed as FAST:HBR-3,5DM
[7] = FAST:fluorogen complex, listed as FAST:HBR-2,5DM
[8] = FAST:fluorogen complex, listed as FAST:HBR-3OE

SMILES	Brightness = ε × φ ([1]; FAST:fluorogen complex)	ε, molar absorption coefficient at λ abs ([1]; FAST:fluorogen complex)	F bound/F unbound, fluorescence activation upon FAST binding [1]	pKa [2]	λabs,anionic, wavelength of maximal absorption of the anionic state [2]	λabs,neutral, wavelength of maximal absorption of the protonated state [2]	Kd [3]	red-shifted absorption relative to FAST:HMBR ([1]; FAST:fluorogen complex)	red-shifted emission relative to FAST:HMBR ([1]; FAST:fluorogen complex)	φ, fluorescence quantum yield ([1]; FAST:fluorogen complex)	Δλ abs = λ abs,bound – λ abs,unbound, absorption red-shift upon FAST binding [1]	toxicity for HeLa cells (cell viability) [4]	other results
Cc1cc(C=C2SC(=S)NC2=O)ccc1O [HMBR, 4-hydroxy-3-methylbenzylidene rhodanine, reference compound]	10 300	45 mM^–1 cm^–1	300	8.7	461 nm	401 nm							
COc1cc(/C=C2\SC(=S)NC2=O)ccc1O [HBR-3OM, (Z)-5-(4-Hydroxy-3-methoxybenzylidene)-2-thioxo-1,3-thiazolidin-4-one]	14 400	40 mM^–1 cm^–1	350	8.3	468 nm	403 nm	0.31 µM	15–20 nm	10–20 nm	36%	91 nm	non-toxic	λ abs, wavelength of maximal absorption [1, 5]: 494 nm; λ em, wavelength of maximal emission [1, 5]: 561 nm
Cc1cc(/C=C2\SC(=S)NC2=O)cc(C)c1O [HBR-3,5DM, (Z)-5-(4-Hydroxy-3,5-dimethylbenzylidene)-2-thioxothiazolidin-4-one]	23 500	48 mM^–1 cm^–1	660	8.7	473 nm	401 nm	0.08 µM	15–20 nm	10–20 nm	49%	98 nm	non-toxic	λ abs, wavelength of maximal absorption [1, 6]: 499 nm; λ em, wavelength of maximal emission [1, 6]: 562 nm; overall brightness relative to the original FAST:HMBR complex ([1]; higher than FAST:HMBR): 2.5 fold
Cc1cc(/C=C2\SC(=S)NC2=O)c(C)cc1O [HBR-2,5DM, (Z)-5-(4-Hydroxy-2,5-dimethylbenzylidene)-2-thioxo-1,3-thiazolidin-4-one]	14 500	50 mM^–1 cm^–1	430	8.7	472 nm	406 nm	0.008 µM	15–20 nm	10–20 nm	29%	88 nm		λ abs, wavelength of maximal absorption [1, 7]: 494 nm; λ em, wavelength of maximal emission [1, 7]: 552 nm
COc1cc(/C=C2\SC(=S)NC2=O)cc(OC)c1O [HBR-3,5DOM, (Z)-5-(4-Hydroxy-3,5-dimethoxybenzylidene)-2-thioxothiazolidin-4-one]	12 000	39 mM^–1 cm^–1	220	8.3	484 nm	407 nm		40 nm	60 nm	31%	112 nm	non-toxic	Stokes shift ([1]; FAST:fluorogen complex): 82 nm; λ em, wavelength of maximal emission ([1]; FAST:fluorogen complex): 600 nm
CCc1cc(/C=C2\SC(=S)NC2=O)ccc1O [HBR-3E, (Z)-5-(3-Ethyl-4-hydroxybenzylidene)-2-thioxothiazolidin-4-one]	6500	50 mM^–1 cm^–1	300				0.08 µM			13%	81 nm		λ abs, wavelength of maximal absorption ([1]; FAST:fluorogen complex): 481 nm; λ em, wavelength of maximal emission ([1]; FAST:fluorogen complex): 543 nm
CCOc1cc(/C=C2\SC(=S)NC2=O)ccc1O [HBR-3OE, (Z)-5-(3-Ethoxy-4-hydroxybenzylidene)-2-thioxothiazolidin-4-one]	7000	41 mM^–1 cm^–1	230				0.27 µM	15–20 nm	10–20 nm	17%	94 nm		λ abs, wavelength of maximal absorption [1, 8]: 497 nm; λ em, wavelength of maximal emission [1, 8]: 562 nm
